Here are results for 21 molecules from US20240391900A1, “RIP1 KINASE INHIBITOR AND USE THEREOF” (SIRONAX (BEIJING) CO., LTD., priority 2021, published 2024).

Series [1] concerns HT-29 human colon cancer cells. Briefly: In vitro biological activity assay: inhibition of TNFα/SmacM/Z_VAD FMK-induced programmed necrosis, CellTiter-Glo viability. It is filed as cell-based. The following applies: HT-29 cells, necrosis induced with TNF-α 100 ng/mL, SmacM 100 nM, Z_VAD-FMK 10 μM, overnight, cell viability by chemiluminescence. On the procedure: In order to verify the inhibitory effect of the compounds of the present disclosure on programmed necrosis at the cellular level, a type of cells closely related to the RIP1 pathway, namely HT-29 human colon cancer cells, were selected. The used activation mode is a combination of tumor necrosis factor (TNFα), cysteine aspartate activator mimic (SmacM) and pan-caspase inhibitor Z_VAD FMK, and the cell viability was calculated by detecting chemiluminescence values, thus obtaining the biological activity of the compound inhibiting the programmed necrosis of cells.
Cell line: HT-29 (ATCC® HTB-38™)
• 2.1. The Growth Status of HT-29 Cells was Regularly Checked to Ensure their Normal Growth. • 2.2. McCOY's 5A culture medium containing 10% FBS was preheated in a 37° C. water bath for 30 minutes. When the culture medium was ready for use, the cell passage and inoculation was performed in a Class II safety cabinet with aseptic technique. • 2.3. In a T75 culture flask, when the growth density of cells reached the abundance of approximately 80%, the culture medium was aspirated and cells were washed twice with pre-warmed PBS. • 2.4. 2-3 mL of trypsin (Gibco, catalog number 25200-056) was added and the T75 culture flask was transferred to a 37° C. incubator. • 2.5. After 3-5 minutes, the side of the culture flask was tapped and examined under a microscope for detachment of the cells to the flask. If necessary, the cells were placed back into the incubator to wait for another 5-10 minutes until 85% of the cells were detached from each other. • 2.6. 6-9 mL of complete cell culture medium was quickly added to terminate the trypsin reaction, and then the cells were transferred to a sterile 15 mL centrifuge tube. The cells were pelleted by centrifugation at 300 g for 5-7 minutes in a centrifuge, and then the supernatant was decanted. • 2.7. The cells were resuspended in 10 mL of fresh cell culture medium and the cells were counted by using a hemocytometer. • 2.8. 3,000 cells contained in 100 μL were inoculated into each well of a sterile 96-well cell culture plate (Corning 3903) and cultured overnight at 37° C. under 5% CO2.
• 3.1. All batches of compounds were dissolved in dimethyl sulfoxide (DMSO) to prepare a 20 mM stock. • 3.2. 3 μL of 20 mM stock of each compound was added to 27 μL of DMSO and mixed thoroughly, and then diluted at a dilution ratio of […] (20 μL compound+40 μL DMSO) until the 10-12 points ended. After the compounds were diluted, they were set aside for use. • 3.3. The cell culture plate was taken out from the incubator, washed once with PBS, and replaced with a fresh culture medium free of serum. A mixture of TNF-α (100 ng/mL), SMAC mimic (SmacM, 100 nM) and Z_VAD-FMK (10 μM) was added to induce the programmed necrosis in HT-29 cells. • 3.4. The compound dilution plate was prepared, 0.5 μL of the diluted compound was added to the corresponding 96-well plate, and mixed gently. Two duplicate wells were prepared for each compound. • 3.5. The treated 96-well plate to which the compounds had been added was placed back into the 37° C. incubator containing 5% CO2 and incubated overnight.
The luminescence cell viability detection kit was used to calculate the activity of the compound by measuring the ATP content in viable cells. • 4.1. The CellTiter-Glo® buffer and dry powdered substrate were equilibrated to room temperature before use. • 4.2. The CellTiter-Glo® substrate was resuspended with Cell Titer-Glo® buffer, then homogeneously mixed by gently vortexing. • 4.3. The cell culture plate was taken out and equilibrated at room temperature for 10 minutes (usually not suitable if more than 30 minutes). • 4.4. 20 μL of enzyme/substrate mixture was added into the 96-well assay plate with a multi-channel pipettor. • 4.5. The 96-well assay plate was placed on a shaker and the content was mixed for 2-3 minutes to promote the cell lysis. • 4.6. […]
Background: In ATP-based viability assays light output follows the ATP content of the culture.

The nature of series [2]: Rapid brain distribution assay (LC-MS/MS, brain tissue/plasma ratio). It is filed as in vivo. As to conditions: mouse, ip, CD1 mice, intraperitoneal, grouped compounds, brain tissue and plasma taken one hour after administration, read-out: B/P. On the procedure: The contents in plasma and tissue samples were measured by LC-MS/MS to obtain the ratio of the concentration in the brain tissue sample to that in the plasma sample, and compounds with blood-brain penetration could be quickly screened.
• 3.1. A group of compounds (usually 3-4 compounds, the molecular weight difference between each other was greater than 5), weighing 1-2 mg of each compound, were added into the same 4 mL weighing bottle. • 3.2. A mixed solvent of 10% DMSO+20% polyethylene glycol-15-hydroxystearate+70% H2O was used to prepare each group to a volume of 1.5 mL-2 mL. • 3.3. The mixture was ultrasonically vortexed until a homogeneous solution was obtained for intraperitioneal administration.
• 4.1. Three CD1 mice were prepared for each group and weighed. • 4.2. The administration volume was 10 mL/kg, and the mice were administered intraperitoneally. • 4.3. Timing was started after administration, and plasma samples and brain tissue samples were taken one hour later. • 4.4. The brain tissue sample was weighed, and then 4 fold volume of physiological saline was added. The resulting mixture was homogenized, and frozen at −20° C. until analysis.
• 5.1. The exact molecular weight of a compound was found from the compound information table. • 5.2. The corresponding parent ions and fragment ions were found, and the mass spectrometry condition and the liquid phase (chromatography) method were optimized to find the appropriate condition and method.
• 6.1. Plasma sample (5-fold dilution): 10 μL of the plasma sample was taken, and 40 μL of the blank plasma sample and 50 μL of the corresponding blank tissue sample were added. • 6.2 Tissue sample processing: 50 μL of the tissue sample (brain, kidney, liver and the like) was taken, and 50 μL of the blank plasma sample was added. • 6.3. The above tissue sample and the diluted plasma sample were taken, and 500 μL of the internal standard solution was added to precipitate the protein. The resulting mixture was vortexed for 2 minutes, stored by freezing at −20° C. for 1 hour and centrifuged at 3800 rpm for 15 minutes at 4° C. The supernatant was taken, 5-fold diluted with 50% MeOH, and then vortexed for 2 minutes, ready for measurement.
The sample was detected by using an appropriate LC-MS/MS method.
Distribution ratio of tissue/plasma=(peak area of compound in tissue/peak area of internal standard)/(peak area of compound in plasma/peak area of internal standard)

A value given as a limit tells only on which side of the number the result lay.

The EC50 is the midpoint of the concentration-response curve. In the case of `C(#Cc1cnc2ccccn12)c1cccc(-n2cc3c(n2)C(c2ccccc2)CC3)c1` (stereo not drawn) [Compound 15, 3-((3-(6-phenyl-5,6-dihydrocyclopenta[c]pyrazol-2 (4H)-yl)phenyl)ethynyl)imidazo[1,2-a]pyridine], the concentration giving a half-maximal response (EC50) in series [1] was no more than 100 nM. For the same molecule, in series [2], the Kp at 1 h amounted to 0.406.

Turning to `Cc1ncc(C#Cc2cccc(-n3cc4c(n3)C(c3ccccc3)CC4)c2)n1C` (stereo not drawn) [Compound 24, 2-(3-((1,2-dimethyl-iH-imidazole-5-yl)ethynyl)phenyl)-6-phenyl-2,4,5,6-tetrahydrocyclopenta[c]pyrazole], in series [1], the EC50 was no more than 100 nM. Further, the Kp at 1 h in series [2] was 1.33.

Turning to `Nc1ncc(C#Cc2ccnc(-n3cc4c(n3)C(c3ccccc3)CC4)c2)cn1` (stereo not drawn) [Compound 28], in series [1], the EC50 was no more than 100 nM. Besides, the Kp at 1 h in series [2] came to 1.91.

Turning to `Nc1ncc(C#Cc2cc(-n3cc4c(n3)C(c3ccccc3)CC4)ncn2)cn1` (stereo not drawn) [Compound 9, 5-((6-(6-phenyl-5,6-dihydrocyclopenta[c]pyrazol-2 (4H)-yl)pyrimidine-4-yl)ethynyl)pyrimidin-2-amine], in series [1], the EC50 was 100 to 1000 nM. Also, in series [2], the Kp at 1 h worked out at 2.85.

Take `NC(=O)c1ncc(C#Cc2cncc(-n3cc4c(n3)C(c3ccccc3)CC4)c2)cn1` (stereo not drawn) [Compound 10, 5-((5-(6-phenyl-5,6-dihydrocyclopenta[c]pyrazol-2 (4H)-yl)pyridin-3-yl)ethynyl)pyrimidine-2-carboxamide]: the EC50 in series [1] is greater than 1000 nM. The Kp at 1 h in series [2] turned out to be 1.34.

Turning to `Nc1ncc(C#Cc2cncc(-n3cc4c(n3)C(c3cccc(F)c3)CC4)c2)cn1` (stereo not drawn) [Compound 45], the EC50 in series [1] was no more than 100 nM. The Kp at 1 h in series [2] was determined as 2.28.

Consider `C(#Cc1cnc2cccnn12)c1cncc(-n2cc3c(n2)C(c2ccccc2)CC3)c1` (stereo not drawn) [Compound 6, 3-((5-(6-phenyl-5,6-dihydrocyclopenta[c]pyrazol-2 (4H)-yl)pyridin-3-yl)ethynyl)imidazo[1,2-b]pyridazine], for which the EC50 in series [1] was no more than 100 nM. For the same molecule, the Kp at 1 h in series [2] stood at 1.24.

Turning to `Nc1ncc(C#Cc2cncc(-n3nc4c(n3)[C@@H](c3ccccc3)CC4)c2)cn1` [Compound 56, (R)-5-((5-(4-phenyl-5,6-dihydrocyclopenta[d][1,2,3]triazol-2 (4H)-yl)pyridin-3-yl)ethynyl)pyrimidin-2-amine], in series [1], the EC50 was greater than 1000 nM. Also, the Kp at 1 h in series [2] was 1.2.

On to `Nc1ccc(C#Cc2cncc(-n3cc4c(n3)C(c3ccccc3)CC4)c2)cn1` (stereo not drawn) [Compound 16, 5-((5-(6-phenyl-5,6-dihydrocyclopenta[c]pyrazol-2 (4H)-yl)pyridin-3-yl)ethynyl)pyridine-2-amine], for which the EC50 in series [1] is no more than 100 nM. For the same molecule, the Kp at 1 h in series [2] was determined as 2.24.

For the molecule `Oc1ccc(C#Cc2cncc(-n3cc4c(n3)C(c3ccccc3)CC4)c2)nn1` (stereo not drawn) [Compound 11, 6-((5-(6-phenyl-5,6-dihydrocyclopenta[c]pyrazol-2 (4H)-yl)pyridin-3-yl)ethynyl)pyridazine-3-ol], the EC50 in series [1] was no more than 100 nM. In series [2], the Kp at 1 h is 1.23.

On to `Cn1c(-n2cc3c(n2)C(c2ccccc2)CC3)cc(C#Cc2cnc(N)nc2)cc1=O` (stereo not drawn) [Compound 4, 4-((2-aminopyrimidin-5-yl)ethynyl)-1-methyl-6-(6-phenyl-5,6-dihydrocyclopenta[c]pyrazol-2 (4H)-yl)pyridine-2 (1H)-one], for which, in series [1], the EC50 was no more than 100 nM. In addition, in series [2], the Kp at 1 h turned out to be 1.44.

As to `Nc1ncc(C#Cc2cncc(-n3nc4c(n3)C(C3CCCCC3)CC4)c2)cn1` (stereo not drawn) [Compound 2, 5-((5-(4-cyclohexyl-5,6-dihydrocyclopenta[d][1,2,3]triazol-2 (4H)-yl)pyridin-3-yl)ethynyl)pyrimidin-2-amine], in series [1], the EC50 is no more than 100 nM. The Kp at 1 h in series [2] was 0.62.

For `Nc1ncc(C#Cc2cncc(-n3cc4c(n3)[C@H](c3ccccc3)CC4)c2)s1` [Compound 31], the EC50 in series [1] is no more than 100 nM. For the same molecule, the Kp at 1 h in series [2] is 2.38.

Consider `Nc1ncc(C#Cc2cncc(-n3cc4c(n3)[C@H](c3ccccc3)CC4)c2)cn1` [Compound 14], for which the EC50 in series [1] is no more than 100 nM. For the same molecule, the Kp at 1 h in series [2] is 2.92.

`Cn1c(-n2nc3c(n2)C(C2CCCCC2)CC3)cc(C#Cc2cnc(N)nc2)cc1=O` (stereo not drawn) [Compound 65, 4-((2-aminopyrimidin-5-yl)ethynyl)-6-(4-cyclohexyl-5,6-dihydrocyclopenta[d][1,2,3]triazol-2 (4H)-yl)-1-methylpyridin-2 (1H)-one]: in series [1], the EC50 was no more than 100 nM. For the same molecule, the Kp at 1 h in series [2] worked out at 1.12.

With `Cn1c(-n2nc3c(n2)C(c2ccccc2)CC3)cc(C#Cc2cnc(N)nc2)cc1=O` (stereo not drawn) [Compound 57, 4-((2-aminopyrimidin-5-yl)ethynyl)-1-methyl-6-(4-phenyl-5,6-dihydrocyclopenta[d][1,2,3]triazol-2 (4H)-yl)pyridine-2 (1H)-one], the concentration giving a half-maximal response (EC50) in series [1] was no more than 100 nM. Also, in series [2], the Kp at 1 h came to 2.16.

`C(#Cc1cccc(-n2cc3c(n2)C(c2ccccc2)CC3)c1)c1cccnc1` (stereo not drawn) [Compound 32, 6-phenyl-2-(3-(pyridin-3-ethynyl)phenyl)-2,4,5,6-tetrahydrocyclopenta[c]pyrazole]: the EC50 in series [1] was no more than 100 nM. For the same molecule, the Kp at 1 h in series [2] came to 1.27.

As for `C(#Cc1cnc2cccnn12)c1cc(-n2cc3c(n2)C(c2ccccc2)CC3)ccn1` (stereo not drawn) [Compound 37], the EC50 in series [1] was no more than 100 nM. Also, the Kp at 1 h in series [2] worked out at 1.06.

Regarding `C(#Cc1cnc2cccnn12)c1cccc(-n2cc3c(n2)C(c2ccccc2)CC3)c1` (stereo not drawn) [Compound 5], the EC50 in series [1] was no more than 100 nM. Besides, the Kp at 1 h in series [2] stood at 0.75.

For `Cc1ncc(C#Cc2cn[nH]c2)cc1-n1nc2c(n1)C(c1ccccc1)CC2` (stereo not drawn) [Compound 66, 2-(5-((1H-pyrazole-4-yl)ethynyl)-2-methylpyridin-3-yl)-4-phenyl-2,4,5,6-tetrahydrocyclopenta[d][1,2,3]triazole], the EC50 in series [1] was no more than 100 nM. In series [2], the Kp at 1 h turned out to be 3.62.

For the molecule `Nc1ncc(C#Cc2cncc(-n3nc4c(n3)C(c3ccccc3)CC4)c2)cn1` (stereo not drawn) [Compound 54, 5-((5-(4-phenyl-5,6-dihydrocyclopenta[d][1,2,3]triazol-2 (4H)-yl)pyridine-3-yl)ethynyl)pyrimidin-2-amine], the EC50 in series [1] is no more than 100 nM. In series [2], the Kp at 1 h is 1.44.
